Tests used:
[1] = tested on: conversion of E1S to E2 (sulfatase activity) in T-47D breast cancer cell line; assay: Conversion of [3H]-E1S to E2 in T-47D human mammary cancer cells; format: cell-based; conditions: for inhibition at 0.005 µM / inhibition at 0.5 µM / inhibition at 50 µM / IC50: Homo sapiens, T47D; for inhibition at 0.005 µM / inhibition at 0.5 µM / inhibition at 50 µM: mean ± SEM; for IC50: non-linear regression analysis; for E2 formed: 5×10^−9 mol/l [3H]-E1S, control 1805 ± 152
Protocol: (§1) [6,7-^3H(N)]-estrone sulfate (^3H-E1S), ammonium salt (sp. act. 53 Ci/mmol) and [4-^14C]-estradiol (^14C-E2) (sp. act. 57 mCi/mmol) were purchased from New England Nuclear Division (DuPont de Nemours, Les Ulls, France). The purity of the radioisotopes was assessed by thin-layer chromatography (TLC) in the appropriate system before use. E1S, ammonium salt, unlabeled E1and E2, (analytical grade) were obtained from Sigma-Aldrich Chimle, (St Quentin Fallavier, France). 17-deacetylnorgestimate (NGMN; 13-ethyl-17-hydroxy-18,19-dinor-17α-pregn-4-en-20-yn-3-one oxime) was a gift from R. W. Johnson Pharmaceutical Research Institute, Medicinal Chemistry Department, (Raritan, N.J., USA); medroxyprogesterone acetate (MPA, 17α-acetoxy-6α-methylprogesterone) was obtained from Sigma-Aldrich Chimie. All other chemicals were of the highest grade commercially available.
(§2) The hormone-dependent MCF-7 and T-47D human mammary cancer cell lines were grown in Eagle's Minimal Essential Medium (MEM) buffered with 10 mmol/l HEPES (pH 7.6), supplemented with 2 mmol/l L-glutamine, 100 U/ml penicillin-streptomycin and 5% fetal calf serum (FCS) (A.T.G.C., Marne-la-Vallée, France) for T-47D, or 10% FCS for MCF-7 cells, and incubated at 37° C. n a humidified atmosphere of 5% CO2. Media were changed twice a week. The cells were passed every 10-12 days and replated in 75 cm^2 flasks (A.T.G.C.) at 3×10^6 cells/flask. Four days before the experiments, the cells were transferred to MEM containing 5% steroid-depleted treated FCS. The FCS had been treated overnight at 4° C. with dextran-coated charcoal (DCC)(0.1-1% w/v, DCC-FCS). The MCF-7 and T-47D cell lines used herein were deposited in accordance with the Budapest Treaty under the references MCF7_JJPRD and T47D_JJPRD on May 17, 2002 at The Belgian Co-ordinated Collections of Micro-organisms (BCCM), Laboratorium voor Moleculaire Biologie, Universiteit Gent, K. L. Ledeganckstraat 35, B-9000 Gent, Belgium and are publicly available under accession numbers LMBP 5862CB and LMBP 5863CB, respectively.
(§3) Preconfluent cells were incubated for 4 hours at 37° C. in MEM-DCC-FCS with the addition of 5×10^−9 mol/l of [^3H]-E1S, alone (control cells) or in combination with the different compounds: NGMN or MPA, dissolved in ethanol (final concentration <0.2%), at a range of concentrations of 5×10^−5-5×10^−9 mol/l. Control cells received ethanol vehicle only. After 24 hours, the medium was removed, the cells washed twice with ice-cold Hank's Buffered Saline Solution (HBSS, calcium-magnesium-free)(A.T.G.C.) and harvested by scraping. After centrifugation, the pallet was treated with 80% ethanol and the radioactivity extracted for at least 24 h at −20° C. The cellular radioactivity uptake was determined in the ethanolic supernatant and the DNA content in the remaining pellet was evaluated according to Burton Biochem Journal 62:315-323, 1956. [^14C]-E2 (5,000 dpm) was added to monitor analytical losses and unlabeled E1and E2 (50 μg) were used as carriers and reference indicators. In the total ethanolic extracts, E2 was isolated by thin layer chromatography (TLC) on silica gel 60F254 (Merck, Darmstadt, Germany), developed with chloroformi-ethylacetate (4:1, v/v) system. After visualization of the estrogens under U.V. at 254 nm, the appropriate areas were cut off into small pieces, placed in liquid scintillation vials with ethanol (0.5 ml) and allowed to extract for […]. Three ml of Opti-fluor (Packard, Rungis, France) were added and the vials were analyzed for ^3H and ^14C contents with quench correction by external standarization. The quantitative evaluation of E2 was calculated as a percentage of the total radioactivity associated with the cells and then expressed as fmol of E2 formed/mg DNA from E1S.
(§4) Data are expressed as the mean±standard error of the mean (SEM) values. Student's t-test was used to assess the significance of the differences between means; p values ≦0.05_were considered significant. […]

[2] = tested on: conversion of E1S to E2 (sulfatase activity) in MCF-7 breast cancer cell line; assay: Conversion of [3H]-E1S to E2 in MCF-7 human mammary cancer cells; format: cell-based; conditions: for inhibition at 0.005 µM / inhibition at 0.5 µM / inhibition at 50 µM / IC50: Homo sapiens; for inhibition at 0.005 µM: MCF7, compound conc 0.005 × 10^−6 mol/l; for inhibition at 0.005 µM / inhibition at 0.5 µM / inhibition at 50 µM: mean ± SEM; for inhibition at 0.5 µM: MCF7, compound conc 0.5 × 10^−6 mol/l; for inhibition at 50 µM: MCF7, compound conc 50 × 10^−6 mol/l; for IC50: MCF7, non-linear regression analysis; for E2 formed: 5×10^−9 mol/l [3H]-E1S, control 2185 ± 101
Protocol: as §1, §2, §3, §4

[3] = humans; major metabolite; cited from earlier work
[4] = compound conc 0.005 × 10^−6 mol/l
[5] = compound conc 0.5 × 10^−6 mol/l
[6] = compound conc 0.005 × 10^−6 mol/l, mean of 3 experiments

Row | Compound | inhibition at 0.005 µM [1, 4] [%] | inhibition at 0.5 µM [1, 5] [%] | inhibition at 50 µM ([1]; compound conc 50 × 10^−6 mol/l) [%] | IC50 [1] [µM] | E2 formed [1, 6] [fmol/mg DNA] | E2 formed [1, 5] [fmol/mg DNA] | E2 formed ([1]; compound conc 50 × 10^−6 mol/l) [fmol/mg DNA] | inhibition at 0.005 µM [2] [%] | inhibition at 0.5 µM [2] [%] | inhibition at 50 µM [2] [%] | IC50 [2] [µM] | E2 formed [2, 4] [fmol/mg DNA] | E2 formed [2, 5] [fmol/mg DNA] | E2 formed ([2]; compound conc 50 × 10^−6 mol/l) [fmol/mg DNA] | fraction of norgestimate converted to norelgestromin in vivo [3] [%]
1 | C#C[C@]1(O)CC[C@H]2[C@@H]3CCC4=C/C(=N/O)CC[C@@H]4[C@H]3CC[C@@]21CC [NGMN, 13-ethyl-17-hydroxy-18,19-dinor-17α-pregn-4-en-20-yn-3-one oxime] | 43 | 74 | 97 | 0.0127 | 1029 | 469 | 54 | 25 | 57 | 96 | 0.178 | 1639 | 940 | 87 | 
2 | CC(=O)O[C@]1(C(C)=O)CC[C@H]2[C@@H]3C[C@H](C)C4=CC(=O)CC[C@]4(C)[C@H]3CC[C@@]21C [MPA, 17α-acetoxy-6α-methylprogesterone] | 31 | 47 | 61 | 2.15 | 1245 | 957 | 704 | 6 | 20 | 63 | 26.1 | 2054 | 1748 | 808 | 
3 | C#C[C@]1(OC(C)=O)CC[C@H]2[C@@H]3CCC4=CC(=NO)CC[C@@H]4[C@H]3CC[C@@]21CC (mixture of isomers) [norgestimate] |  |  |  |  |  |  |  |  |  |  |  |  |  |  | ≥ 80

Reference: patent publication US20030225047A1, “Sulfatase inhibiting progestogen-only contraceptive regimens” (priority 2002, published 2003)
